# In article PMC4066437, “Oxidation of cellular amino acid pools leads to cytotoxic mistranslation of the genetic code” (eLife, 2014):
# Molecular target: T1, E. coli TyrRS (Escherichia coli, UniProt P0AGJ9)
# T1 construct: gene tyrS; homodimer
# T1 sequence (P0AGJ9 2-424): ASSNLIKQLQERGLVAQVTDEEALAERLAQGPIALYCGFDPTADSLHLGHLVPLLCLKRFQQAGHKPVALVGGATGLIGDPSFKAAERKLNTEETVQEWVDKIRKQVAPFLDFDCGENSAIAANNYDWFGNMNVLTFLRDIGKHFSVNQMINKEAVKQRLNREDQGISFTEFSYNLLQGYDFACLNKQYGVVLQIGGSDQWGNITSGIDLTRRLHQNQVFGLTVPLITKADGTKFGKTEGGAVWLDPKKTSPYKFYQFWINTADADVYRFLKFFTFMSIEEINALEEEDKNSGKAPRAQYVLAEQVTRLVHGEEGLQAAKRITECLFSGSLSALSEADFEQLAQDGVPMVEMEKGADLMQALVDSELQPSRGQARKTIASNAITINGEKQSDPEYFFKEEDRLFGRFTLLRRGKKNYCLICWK
# Assay: aminoacylation of […]-tRNA transcript
# Type: biochemical
# Details: 1 mM m-Tyr, 50 nM TyrRS, 25 °C; tRNA named tRNA(Tyr) in text, tRNA(Phe) in legend
compound,measurement,value
"NC(Cc1cccc(O)c1)C(=O)O (racemic) [m-Tyr, D,L-m-Tyr]",aminoacylation of 32P-tRNA transcript,Aminoacylation of tRNA^Tyr with m-Tyr by E. coli TyrRS was detected in vitro
